Like-named read-outs stand apart in the source and are kept apart here.

Holding throughout (type): cell-based
In experiment [1] the test system is anaplastic large cell lymphoma cells (DEL). As to the kind of experiment: In vitro potency (CellTiter-Glo, 96 h) on DEL. As to conditions: 96 h, read-out: DEL IC50. On the procedure:
(§1) In vitro potency was assessed on multiple cancer cell lines. All cell lines were authenticated by STR profiling at IDEXX Bioresearch and cultured for no more than 2 months after resuscitation. Cells cultured in log-phase growth were seeded for 24 hours in 96-well plates containing […] RPMI 1640 supplemented with 20% FBS. Serial dilutions of antibody-drug conjugates in cell culture media were prepared at 4x working concentrations, and 50 μL of each dilution was added to the 96-well plates. Following addition of test articles, cells were incubated with test articles for 4 days at […]. After 96 hours, growth inhibition was assessed by CellTiterGlo® (Promega, Madison, WI) and luminescence was measured on a plate reader.
(§2) Cell viability was determined by CellTiter-Glo staining after 96h exposure to ADC. ND=Not Determined. In the following tables, “Ex_” refers to a drug linker number. For example, “Ag4-Ex_4a” refers to a conjugate of an Ag4 antibody with drug linker 4a.

Experiment [2] concerns breast cancer cells (MDA-MB-231). Description: In vitro potency (CellTiter-Glo, 96 h) on MDA-MB-231. As to conditions: Homo sapiens, MDA-MB-231, 96 h, read-out: MDAMB 231 IC50. On the procedure: as §1, §2
(In general: Cellular ATP, detected with luciferase, serves as a proxy for viable cell number.)

Experiment [3] deals with pancreatic cancer cells (BxPC3). As to the kind of experiment: In vitro potency (CellTiter-Glo, 96 h) on BxPC3. The settings on record: Homo sapiens, BXPC-3, 96 h, read-out: BxPC3 IC50. On the procedure:
as §1, §2

In experiment [4] the test system is renal carcinoma cells (786-O). As to the kind of experiment: In vitro potency (CellTiter-Glo, 96 h) on 786-O. The settings on record: Homo sapiens, 786-0, 96 h, read-out: 786-O IC50. On the procedure:
as §1, §2

Experiment [5] deals with acute myeloid leukemia cells (MOLM-13). As to the kind of experiment: In vitro potency (CellTiter-Glo, 96 h) on MOLM-13. As to conditions: Homo sapiens, MOLM-13, 96 h, read-out: MOLM-13 IC50. On the procedure: as §1, §2
For experiment [6], the system named is Hodgkin's lymphoma cells (L540cy). As to the kind of experiment: In vitro potency (CellTiter-Glo, 96 h) on L540cy. As to conditions: L540cy, 96 h, read-out: L540cy IC50. On the procedure: as §1, §2
Experiment [7] relates to B-lymphocyte cancer cells (SU-DHL4). Description: In vitro potency (CellTiter-Glo, 96 h) on SU-DHL4. The settings on record: Homo sapiens, SU-DHL-4, 96 h, read-out: SU-DHL-4 IC50. On the procedure: as §1, §2
For experiment [8], the system named is anaplastic large cell lymphoma cells (DELBVR). Description: In vitro potency (CellTiter-Glo, 96 h) on DELBVR. The settings on record: 96 h, read-out: DELBVR IC50. On the procedure:
as §1, §2

Experiment [9] relates to anaplastic large cell lymphoma cells (Karpas299). Description: In vitro potency (CellTiter-Glo, 96 h) on Karpas299. The settings on record: Homo sapiens, KARPAS-299, 96 h, read-out: Karpas299 IC50. As for the experimental part:
as §1, §2

Experiment [10] in a line: In vitro potency (CellTiter-Glo, 96 h) on Ls174T. As to conditions: Homo sapiens, LS174T, read-out: Ls174T IC50. As for the experimental part:
as §1, §2

The mark [11] stands for this setting: CPT free drugs, CellTiter-Glo after 96 h exposure.

Broadly, the IC50 is the concentration that gives 50% inhibition. With `CC[C@@]1(O)C(=O)OCc2c1cc1n(c2=O)Cc2c-1nc1cc3c(cc1c2CN(C)CCCN)OCO3` [Compound 8, (5S)-14-[[3-aminopropyl(methyl)amino]methyl]-5-ethyl-5-hydroxy-7,18,20-trioxa-11,24-diazahexacyclo[11.11.0.02,11.04,9.015,23.017,21]tetracosa-1(13),2,4(9),14,16,21,23-heptaene-6,10-dione;2,2,2-trifluoroacetic acid], the IC50 in experiment [1] (setting [11]) was found to be 8 nM; in experiment [2] (setting [11]) it was 125 nM; in [3] (setting [11]), 52 nM; in [4] (setting [11]) it was 113 nM; in experiment [5] (setting [11]) it was 47 nM; in [6] (setting [11]), 44 nM. Moreover, the half-maximal inhibitory concentration (IC50) in experiment [7] (setting [11]) came to 15 nM; in [8] (setting [11]) it was 16 nM; in [9] (setting [11]), 54 nM; in experiment [10] (setting [11]), 131 nM.

As for `CC[C@@]1(O)C(=O)OCc2c1cc1n(c2=O)Cc2c-1nc1cc3c(cc1c2CNC1CCNCC1)OCO3` [Compound 8e], the half-inhibitory concentration (IC50) stood at 7 nM in experiment [1]; 102 nM in [2]; 62 nM in experiment [3]; 104 nM in experiment [4]; 89 nM in experiment [5]; 36 nM in experiment [6]. Also, the half-maximal inhibitory concentration (IC50) worked out at 25 nM in experiment [7], 10 nM in [8], 72 nM in experiment [9] and 109 nM in experiment [10] (96 h).

As for `CC[C@@]1(O)C(=O)OCc2c1cc1n(c2=O)Cc2c-1nc1cc3c(cc1c2CNCCN1CCNCC1)OCO3` [Compound 8b], the IC50 in experiment [1] is 8 nM; in [2], 260 nM; in [3] it was 51 nM; in experiment [4], 102 nM; in experiment [5], 91 nM; in experiment [6] it was 56 nM. Moreover, the IC50 stood at 17 nM in experiment [7], 13 nM in [8], 62 nM in experiment [9] and 111 nM in experiment [10] (96 h).

Regarding `CC[C@@]1(O)C(=O)OCc2c1cc1n(c2=O)Cc2c-1nc1cc3c(cc1c2CNC(=O)CN)CCO3` [Compound 13], the IC50 is 8 nM in experiment [1]; 177 nM in [2]; 94 nM in [3]; 139 nM in [4]; 88 nM in experiment [5]; 45 nM in [6]. For the same compound, the IC50 worked out at 18 nM in experiment [7], 21 nM in experiment [8], 126 nM in experiment [9] and 195 nM in experiment [10] (96 h).

On to `C/C=C/c1c(C)c(F)cc2nc3c(c(CN)c12)Cn1c-3cc2c(c1=O)COC(=O)[C@]2(O)CC` [Compound 2aj], for which the IC50 in [1] (setting [11]) is 0.3 nM; in [2] (setting [11]), 5 nM; in experiment [3] (setting [11]), 3 nM; in [4] (setting [11]), 2 nM; in experiment [5] (setting [11]) it was 1 nM; in [6] (setting [11]), 1 nM. The half-maximal inhibitory concentration (IC50) in experiment [7] (setting [11]) is 1 nM; in [8] (setting [11]), 0.3 nM; in experiment [9] (setting [11]), 2 nM; in experiment [10] (setting [11]), 5 nM.

Regarding `C=Cc1c(C)c(F)cc2nc3c(c(CN)c12)Cn1c-3cc2c(c1=O)COC(=O)[C@]2(O)CC` [Compound 2am, (S)-11-(aminomethyl)-4-ethyl-8-fluoro-4-hydroxy-9-methyl-10-vinyl-1,12-dihydro-14H-pyrano[3′,4′:6,7]indolizino[1,2-b]quinoline-3,14(4H)-dione], the half-inhibitory concentration (IC50) in [1] is 0.3 nM; in [2] it was 5 nM; in [3], 4 nM; in experiment [4] it was 2 nM; in experiment [5], 2 nM; in [6], 1 nM. Besides, the concentration for half-maximal inhibition (IC50) is 1 nM in experiment [7], 0.3 nM in experiment [8], 2 nM in experiment [9] and 5 nM in experiment [10] (96 h).

For `CC[C@@]1(O)C(=O)OCc2c1cc1n(c2=O)Cc2c-1nc1cc(F)c(C)c(Cl)c1c2CNC(C)=O` [Compound 12a], the IC50 in experiment [1] was determined as 0.2 nM; in experiment [2] it was 2 nM; in [3], 2 nM; in experiment [4], 1 nM; in [5] it was 1 nM; in experiment [6] it was 0.4 nM. In addition, the half-maximal inhibitory concentration (IC50) is 0.4 nM in experiment [7], 0.2 nM in experiment [8], 1 nM in experiment [9] and 7 nM in experiment [10] (96 h).

On to `CC[C@@]1(O)C(=O)OCc2c1cc1n(c2=O)Cc2c-1nc1cc3c(cc1c2CN1CCN(CCN)CC1)OCO3` [Compound 8c], for which the IC50 in experiment [1] was 3 nM; in experiment [2], 57 nM; in [3] it was 14 nM; in experiment [4], 27 nM; in [5], 69 nM; in [6] it was 14 nM. The IC50 in [7] was determined as 7 nM; in [8], 4 nM; in experiment [9], 28 nM; in [10] (96 h), 32 nM.

Consider `CC[C@@]1(O)C(=O)OCc2c1cc1n(c2=O)Cc2c-1nc1cc3c(cc1c2CNCCCN1CCN(C)CC1)OCO3` [Compound 7h], for which the concentration for half-maximal inhibition (IC50) in experiment [1] turned out to be 5 nM; in [2], 67 nM; in [3], 43 nM; in [4], 44 nM; in [5], 93 nM; in [6] it was 23 nM. For the same compound, the IC50 in experiment [7] was 21 nM; in experiment [8], 6 nM; in experiment [9], 57 nM; in experiment [10] (96 h) it was 40 nM.

As for `CC[C@@]1(O)C(=O)OCc2c1cc1n(c2=O)Cc2c-1nc1cc(F)c(C)c(/C=C/c3ccc(OC)cc3)c1c2CN` [Compound 2ai], the half-maximal inhibitory concentration (IC50) was 6 nM in experiment [1] (setting [11]); 79 nM in experiment [2] (setting [11]); 57 nM in experiment [3] (setting [11]); 64 nM in experiment [4] (setting [11]); 34 nM in [5] (setting [11]); 47 nM in experiment [6] (setting [11]). Moreover, the IC50 in experiment [7] (setting [11]) was 13 nM; in experiment [8] (setting [11]), 5 nM; in [9] (setting [11]) it was 47 nM; in [10] (setting [11]) it was 64 nM.

Turning to `CC[C@@]1(O)C(=O)OCc2c1cc1n(c2=O)Cc2c-1nc1cc3c(cc1c2CNC(C)=O)CCO3` [Compound 12], the IC50 is 1 nM in experiment [1]; 27 nM in experiment [2]; 12 nM in experiment [3]; 13 nM in [4]; 5 nM in experiment [5]; 5 nM in experiment [6]. For the same compound, the IC50 in experiment [7] came to 1 nM; in experiment [8] it was 1 nM; in [9], 24 nM; in experiment [10] (96 h), 19 nM.

Consider `CC[C@@]1(O)C(=O)OCc2c1cc1n(c2=O)Cc2c-1nc1cc3c(cc1c2CNC[C@H](O)CO)OCO3` [Compound 7n], for which the IC50 in experiment [1] was 5 nM; in experiment [2], 96 nM; in experiment [3], 47 nM; in experiment [4] it was 66 nM; in experiment [5], 137 nM; in [6], 23 nM. For the same compound, the IC50 in experiment [7] was 21 nM; in experiment [8], 6 nM; in [9] it was 57 nM; in experiment [10] (96 h), 39 nM.

For the compound `CC[C@@]1(O)C(=O)OCc2c1cc1n(c2=O)Cc2c-1nc1cc3c(cc1c2CNCC(O)CN1CCOCC1)OCO3` (stereo partly shown) [Compound 7i], the IC50 in experiment [1] amounted to 9 nM; in [2], 183 nM; in experiment [3], 57 nM; in [4], 118 nM; in experiment [5], 183 nM; in experiment [6], 48 nM. The 50% inhibitory concentration (IC50) in [7] was determined as 32 nM; in [8] it was 17 nM; in experiment [9] it was 84 nM; in experiment [10] (96 h), 110 nM.

The record behind these values is patent publication US20230381321A1, “CAMPTOTHECIN CONJUGATES” (priority 2022, published 2023).
